Usually pIC50 stands for the negative decadic logarithm of the IC50, by convention in mol/L. A word on the IC50: it is the point on the concentration scale where inhibition reaches its midpoint. As a reminder, the Ki is the equilibrium dissociation constant of an inhibitor or competing ligand from its target.

Experiment [1] deals with T1, Mycobacterium tuberculosis α-methylacyl-CoA racemase (MCR) (Mycobacterium tuberculosis, UniProt O06543). Details: made in house; method as in PMID 40447188. Conditions: cited from earlier work.
For experiment [2], the target named is T1, Mycobacterium tuberculosis α-methylacyl-CoA racemase (MCR). The experiment can be described thus: MCR inhibition, colorimetric assay, dose-response curves. In kind it is biochemical. Details: made in house.
For experiment [3] the target is unchanged. The experiment can be described thus: Jump-dilution experiment for reversibility of MCR inhibition. Conditions: inhibitor at 24 × or 0.24 × IC50, 12 min. In kind it is biochemical. Details: made in house. The protocol:
Inhibition assays were conducted as previously described ([17]) in 50 mM NaH2PO4-NaOH, 100 mM NaCl, 1 mM EDTA (pH 7.4), and 3% (v/v) dimethylsulfoxide. Product formation was monitored at 354 nm. […] Enzyme and inhibitor were preincubated for 10 min before adding substrate to initiate the assay. Rates were determined using ICEKAT ([50], [51]), and dose-response curves ([36], [37]) were fitted using SigmaPlot 15.0 with a 4-parameter logistic model. Data are reported as pIC50 ± SEM (n = 3).

For experiment [4] the target is unchanged. The experiment can be described thus: Inhibition mode determination / Ki (kinetic analysis, colorimetric assay). In kind it is biochemical. Details: made in house. How it is done: Enzyme and inhibitor solutions were pre-incubated for 10 min before adding these mixtures to the substrate to initiate the assay. Rates were determined using ICEKAT ([50], [51]) and analyzed with SigmaPlot 15.0 using Simple EK and enzyme kinetics macros ([53]). The best-fitting inhibition model was selected based on graphical analysis and statistical ranking of models. The Ki value was determined as the mean ± SEM from three independent repeats.

The target is the same in experiment [5]. Conditions: mean ± SEM, n = 3; cited from earlier work.
Setting [6] is: Log10 IC50, repeat 1, 4-parameter logistic fit coefficient.
Setting [7] is: Log10 IC50, repeat 2, 4-parameter logistic fit coefficient.
Setting [8] is: Log10 IC50, repeat 3, 4-parameter logistic fit coefficient.
[9] abbreviates: pIC50, mean ± SEM, n = 3, MCR 3.12 nM, substrate 96 μM, 10 min preincubation, pH 7.4.
Where [10] appears, read: repeat 1, 4-parameter logistic fit coefficient.
[11] abbreviates: repeat 2, 4-parameter logistic fit coefficient.
Where [12] appears, read: repeat 3, 4-parameter logistic fit coefficient.

Like-named read-outs stand apart in the source and are kept apart here.

T1 sequence (O06543 whole entry): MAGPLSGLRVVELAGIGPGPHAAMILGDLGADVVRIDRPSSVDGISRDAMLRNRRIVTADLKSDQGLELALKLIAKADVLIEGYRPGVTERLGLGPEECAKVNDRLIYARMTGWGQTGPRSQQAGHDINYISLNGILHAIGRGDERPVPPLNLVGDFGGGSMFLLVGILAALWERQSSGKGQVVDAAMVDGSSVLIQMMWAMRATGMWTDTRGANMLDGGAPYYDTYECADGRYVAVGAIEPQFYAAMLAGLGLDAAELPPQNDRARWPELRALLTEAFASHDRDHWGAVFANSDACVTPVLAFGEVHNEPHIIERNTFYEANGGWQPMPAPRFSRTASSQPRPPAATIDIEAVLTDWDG

For the molecule `CC(C(=O)SCCNC(=O)CCNC(=O)C(O)C(C)(C)COP(=O)(O)OP(=O)(O)OCC1OC(n2cnc3c(N)ncnc32)C(O)C1OP(=O)(O)O)c1cccc(Oc2ccccc2)c1` (racemic) [Compound 1, (±)-Fenoprofenoyl-CoA], the negative logarithm of the IC50 (pIC50) in experiment [1] is recorded as 5.43 ± 0.07.
On to `CC(Sc1cccc(OCc2ccccc2)c1)C(=O)SCCNC(=O)CCNC(=O)C(O)C(C)(C)COP(=O)(O)OP(=O)(O)OCC1OC(n2cnc3c(N)ncnc32)C(O)C1OP(=O)(O)O` (racemic) [Compound 2, (±)-2-(3-Benzyloxyphenylthio)propanoyl-CoA], for which the half-inhibitory concentration (IC50) is 1.63 µM in experiment [2] (setting [6]), 0.619 µM in experiment [2] (setting [7]), 0.487 µM in experiment [2] (setting [8]) and 0.794 µM in experiment [2] (setting [9]). Besides, the results for the Hillslope in experiment [2] (setting [10]), in experiment [2] (setting [11]) and in experiment [2] (setting [12]) were -0.7954, -0.7479 and -0.8395, respectively.
For `COc1cccc(COc2cccc(SC(C)C(=O)SCCNC(=O)CCNC(=O)C(O)C(C)(C)COP(=O)(O)OP(=O)(O)OCC3OC(n4cnc5c(N)ncnc54)C(O)C3OP(=O)(O)O)c2)c1` (racemic) [Compound 3, (±)-2-(3-(3-Methoxybenzyloxy)phenylthio)propanoyl-CoA], the concentration for half-maximal inhibition (IC50) in experiment [2] (setting [6]) was 0.401 µM; in experiment [2] (setting [7]), 0.425 µM; in experiment [2] (setting [8]) it was 0.228 µM; in experiment [2] (setting [9]) it was 0.339 µM. In addition, the Hillslope was -0.6534 in experiment [2] (setting [10]), -0.5594 in experiment [2] (setting [11]) and -0.7275 in experiment [2] (setting [12]).
Consider `CC(Sc1cccc(OCCc2ccccc2)c1)C(=O)SCCNC(=O)CCNC(=O)C(O)C(C)(C)COP(=O)(O)OP(=O)(O)OCC1OC(n2cnc3c(N)ncnc32)C(O)C1OP(=O)(O)O` (racemic) [Compound 4, (±)-2-(3-(2-Phenylethoxy)phenylthio)propanoyl-CoA], for which the 50% inhibitory concentration (IC50) in experiment [2] (setting [6]) was 0.791 µM; in experiment [2] (setting [7]), 0.891 µM; in experiment [2] (setting [8]), 0.839 µM; in experiment [2] (setting [9]), 0.832 µM. Moreover, the Hillslope in experiment [2] (setting [10]) is given as -0.6564; in experiment [2] (setting [11]), -0.8291; in experiment [2] (setting [12]), -0.8501.
`COc1cccc(CCOc2cccc(SC(C)C(=O)SCCNC(=O)CCNC(=O)C(O)C(C)(C)COP(=O)(O)OP(=O)(O)OCC3OC(n4cnc5c(N)ncnc54)C(O)C3OP(=O)(O)O)c2)c1` (racemic) [Compound 5, (±)-2-(3-(2-(3-Methoxyphenyl)ethoxy)phenylthio)propanoyl-CoA]: the IC50 is 1.47 µM in experiment [2] (setting [6]), 1.26 µM in experiment [2] (setting [7]), 1.49 µM in experiment [2] (setting [8]) and 1.41 µM in experiment [2] (setting [9]). The figures for the Hillslope in experiment [2] (setting [10]), in experiment [2] (setting [11]) and in experiment [2] (setting [12]) were -1.0666, -1.0398 and -0.8398, respectively.
As for `CC(Sc1cccc(OCCc2cccc(C(F)(F)F)c2)c1)C(=O)SCCNC(=O)CCNC(=O)C(O)C(C)(C)COP(=O)(O)OP(=O)(O)OCC1OC(n2cnc3c(N)ncnc32)C(O)C1OP(=O)(O)O` (racemic) [Compound 6, (±)-2-(3-(2-(3-Trifluoromethylphenyl)ethoxy)phenylthio)propanoyl-CoA], in experiment [3], the Reversibility of inhibition entry is given as “reversible inhibition”. The Ki in experiment [4] (mean ± SEM, n = 3, competitive model) was found to be 0.238 ± 0.039 µM; in experiment [4] (repeat 1) it was 0.19 µM; in experiment [4] (repeat 2), 0.315 µM; in experiment [4] (repeat 3), 0.21 µM. Besides, in experiment [4] (Lineweaver-Burk plot / kinetic analysis), the Mode of inhibition result is listed as “competitive inhibition”. Besides, the “Potency relative to ibuprofenoyl-CoA, from pIC50” value in experiment [2] was “at least 13.5 times”. Besides, the IC50 in experiment [2] (setting [6]) is 0.134 µM; in experiment [2] (setting [7]), 0.109 µM; in experiment [2] (setting [8]), 0.316 µM; in experiment [2] (setting [9]), 0.166 µM. The Hillslope in experiment [2] (setting [10]) is -0.6535; in experiment [2] (setting [11]), -0.6960; in experiment [2] (setting [12]), -1.0454.
`CC(C)COc1cccc(SC(C)C(=O)SCCNC(=O)CCNC(=O)C(O)C(C)(C)COP(=O)(O)OP(=O)(O)OCC2OC(n3cnc4c(N)ncnc43)C(O)C2OP(=O)(O)O)c1` (racemic) [Compound 7, (±)-2-(3-(2-Methylpropoxy)phenylthio)propanoyl-CoA]: the IC50 was 4.03 µM in experiment [2] (setting [6]), 3.32 µM in experiment [2] (setting [7]), 4.76 µM in experiment [2] (setting [8]) and 3.98 µM in experiment [2] (setting [9]). Further, the Hillslope is -0.7207 in experiment [2] (setting [10]), -0.6683 in experiment [2] (setting [11]) and -0.7565 in experiment [2] (setting [12]).
Consider `CC(Sc1ccc(OCc2ccccc2)cc1)C(=O)SCCNC(=O)CCNC(=O)C(O)C(C)(C)COP(=O)(O)OP(=O)(O)OCC1OC(n2cnc3c(N)ncnc32)C(O)C1OP(=O)(O)O` (racemic) [Compound 8, (±)-2-(4-Benzyloxyphenylthio)propanoyl-CoA], for which the IC50 in experiment [2] (setting [6]) is 2.62 µM; in experiment [2] (setting [7]), 2.61 µM; in experiment [2] (setting [8]), 2.8 µM; in experiment [2] (setting [9]), 2.69 µM. Moreover, the Hillslope in experiment [2] (setting [10]) is listed as -0.8760; in experiment [2] (setting [11]), -0.9668; in experiment [2] (setting [12]), -0.9845.
For the molecule `COc1cccc(COc2ccc(SC(C)C(=O)SCCNC(=O)CCNC(=O)C(O)C(C)(C)COP(=O)(O)OP(=O)(O)OCC3OC(n4cnc5c(N)ncnc54)C(O)C3OP(=O)(O)O)cc2)c1` (racemic) [Compound 9, (±)-2-(4-(3-Methoxybenzyloxy)phenylthio)propanoyl-CoA], the IC50 was 2.67 µM in experiment [2] (setting [6]), 2.25 µM in experiment [2] (setting [7]), 2.84 µM in experiment [2] (setting [8]) and 2.57 µM in experiment [2] (setting [9]). Also, the Hillslope in experiment [2] (setting [10]) was -1.2477; in experiment [2] (setting [11]), -0.8652; in experiment [2] (setting [12]), -1.1180.
Regarding `CC(Sc1ccc(OCCc2ccccc2)cc1)C(=O)SCCNC(=O)CCNC(=O)C(O)C(C)(C)COP(=O)(O)OP(=O)(O)OCC1OC(n2cnc3c(N)ncnc32)C(O)C1OP(=O)(O)O` (racemic) [Compound 10, (±)-2-(4-(2-Phenylethoxy)phenylthio)propanoyl-CoA], the IC50 in experiment [2] (setting [6]) is 2.14 µM; in experiment [2] (setting [7]), 3.02 µM; in experiment [2] (setting [8]), 2.49 µM; in experiment [2] (setting [9]), 2.51 µM. The Hillslope in experiment [2] (setting [10]) is -0.9669; in experiment [2] (setting [11]), -1.3506; in experiment [2] (setting [12]), -1.1651.
For `COc1cccc(CCOc2ccc(SC(C)C(=O)SCCNC(=O)CCNC(=O)C(O)C(C)(C)COP(=O)(O)OP(=O)(O)OCC3OC(n4cnc5c(N)ncnc54)C(O)C3OP(=O)(O)O)cc2)c1` (racemic) [Compound 11, (±)-2-(4-(2-(3-Methoxyphenyl)ethoxy)phenylthio)propanoyl-CoA], the IC50 in experiment [2] (setting [6]) is 0.669 µM; in experiment [2] (setting [7]) it was 1.31 µM; in experiment [2] (setting [8]), 0.598 µM; in experiment [2] (setting [9]), 0.813 µM. The Hillslope in experiment [2] (setting [10]) is reported as -0.8553; in experiment [2] (setting [11]), -1.1060; in experiment [2] (setting [12]) it was -0.6966.
For `CC(Sc1ccc(OCCc2cccc(C(F)(F)F)c2)cc1)C(=O)SCCNC(=O)CCNC(=O)C(O)C(C)(C)COP(=O)(O)OP(=O)(O)OCC1OC(n2cnc3c(N)ncnc32)C(O)C1OP(=O)(O)O` (racemic) [Compound 12, (±)-2-(4-(2-(3-Trifluoromethylphenethoxy)phenylthio)propanoyl-CoA], the IC50 in experiment [2] (setting [6]) was 0.828 µM; in experiment [2] (setting [7]) it was 0.706 µM; in experiment [2] (setting [8]) it was 1.04 µM; in experiment [2] (setting [9]), 0.851 µM. The Hillslope in experiment [2] (setting [10]) is recorded as -1.1570; in experiment [2] (setting [11]) it was -1.0035; in experiment [2] (setting [12]), -1.3522.
With `CC(C)COc1ccc(SC(C)C(=O)SCCNC(=O)CCNC(=O)C(O)C(C)(C)COP(=O)(O)OP(=O)(O)OCC2OC(n3cnc4c(N)ncnc43)C(O)C2OP(=O)(O)O)cc1` (racemic) [Compound 13, (±)-2-(4-(2-Methylpropoxy)phenylthio)propanoyl-CoA], the IC50 in experiment [2] (setting [6]) was 2.07 µM; in experiment [2] (setting [7]), 1.93 µM; in experiment [2] (setting [8]), 1.64 µM; in experiment [2] (setting [9]), 1.86 µM. For the same molecule, the Hillslope in experiment [2] (setting [10]) is -0.7177; in experiment [2] (setting [11]), -0.8209; in experiment [2] (setting [12]), -0.7335.
As for `CCCCCOc1ccc(SC(C)C(=O)SCCNC(=O)CCNC(=O)C(O)C(C)(C)COP(=O)(O)OP(=O)(O)OCC2OC(n3cnc4c(N)ncnc43)C(O)C2OP(=O)(O)O)cc1` (racemic) [Compound 14, (±)-2-((4-(pentyloxy)phenyl)thio)propanoyl-CoA], the IC50 is 0.913 µM in experiment [2] (setting [6]), 0.69 µM in experiment [2] (setting [7]), 0.846 µM in experiment [2] (setting [8]) and 0.813 µM in experiment [2] (setting [9]). For the same molecule, the Hillslope is given as -0.6352 in experiment [2] (setting [10]), -0.8783 in experiment [2] (setting [11]) and -0.7880 in experiment [2] (setting [12]).
Regarding `CC(C)Cc1ccc(C(C)C(=O)SCCNC(=O)CCNC(=O)C(O)C(C)(C)COP(=O)(O)OP(=O)(O)OCC2OC(n3cnc4c(N)ncnc43)C(O)C2OP(=O)(O)O)cc1` (centres unmarked) [ibuprofenoyl-CoA], in experiment [5], the inhibition constant Ki was 3.04 ± 0.34 µM. In addition, in experiment [1], the pIC50 is listed as 5.65 ± 0.05.

Source of the values: paper PMC12682127, “Structural basis for inhibition of Mycobacterium tuberculosis α-methylacyl-CoA racemase by 2-arylthiopropanoyl-CoA inhibitor analogs” (The Journal of Biological Chemistry, 2025).
